# According to patent US9227971B2, “Pyrazolo[1,5-a]pyrimidine compounds as mTOR inhibitors” (Merck Sharp & Dohme Corp., priority 2010, dated 2016):
# pIC50: −log10 of the molar value. Read-outs that look alike come from different tables or passages of the source.
# What was measured:
# [1] = test system: phosphorylated AKT Ser473 (pAKT S473), mTORC2 activity, PC3 cells; experiment: mTOR target engagement assay, immunofluorescent cell-based, pAKT S473 readout (mTORC2 activity); conditions: Homo sapiens
# Outline: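 After blocking, cells were stained overnight at 4 °C with anti-pAKT S473 antibody, then a fluorescent secondary; inhibition was read as reduced fluorescence intensity.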
# [2] = test system: phosphorylated 4E-BP1 Thr37/46 (p4E-BP1 Thr37/46), mTORC1 activity, PC3 cells; experiment: mTOR target engagement assay, immunofluorescent cell-based, p4E-BP1 Thr37/46 readout (mTORC1 activity); conditions: Homo sapiens, read-out: p4E-BP1 Thr37/46 IC50
# Outline: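 PTEN-mutant PC3 prostate cells were treated with serially diluted compound in 5% FBS F12 medium (0.25% DMSO) for ninety minutes at 37° C, glyoxal-fixed, then immunostained overnight at 4° C for p4E-BP1 Thr37/46 with an Alexa Fluor 488 secondary. IC50 came from four-parameter fits of fluorescence, DMSO-only wells defining 100%.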
# [3] = PC-3, PC3 cells, compound treatment ninety minutes at 37° C.
SMILES,"pIC50 [1, 3]","pIC50 [2, 3]","pIC50 ([1]; PC-3, Table 3-1, PC3 cells)","pIC50 ([2]; PC-3, Table 3-1, PC3 cells)",other results
"NC(=O)c1c([C@@H]2C[C@H]3CC[C@@H](C2)N3C(=O)c2nc[nH]n2)nc2c(-c3ccc(-c4ccccc4)nc3)cnn2c1N [Compound 1.1.25, 5-((1R,3s,5S)-8-(1H-1,2,4-triazole-3-carbonyl)-8-azabicyclo[3.2.1]octan-3-yl)-7-amino-3-(6-phenylpyridin-3-yl)pyrazolo[1,5-a]pyrimidine-6-carboxamide]",7.00 to 9.00,7.00 to 9.00,,,
"CC(=O)c1c([C@@H]2C[C@H]3CC[C@@H](C2)N3C(=O)c2nnc[nH]2)nc2c(-c3cccnc3)cnn2c1N [Compound 1.1.80, 1-(5-((1R,3s,5S)-8-(4H-1,2,4-triazole-3-carbonyl)-8-azabicyclo[3.2.1]octan-3-yl)-7-amino-3-(pyridin-3-yl)pyrazolo[1,5-a]pyrimidin-6-yl)ethanone]",6.00 to 7.00,6.00 to 7.00,,,
"CC(=O)c1c([C@@H]2C[C@H]3CC[C@@H](C2)N3C(=O)C(C)(CO)CO)nc2c(-c3ccc(-c4ccn(C)n4)nc3)cnn2c1N [Compound 1.1.56, 1-((1R,3s,5S)-3-(6-acetyl-7-amino-3-(6-(1-methyl-1H-pyrazol-3-yl)pyridin-3-yl)pyrazolo[1,5-a]pyrimidin-5-yl)-8-azabicyclo[3.2.1]octan-8-yl)-3-hydroxy-2-(hydroxymethyl)-2-methylpropan-1-one]",6.00 to 7.00,6.00 to 7.00,,,
"CS(=O)(=O)c1c([C@@H]2C[C@H]3CC[C@@H](C2)N3C(=O)c2cnn[nH]2)nc2c(-c3ccc(-c4ccccc4)nc3)cnn2c1N [Compound 3.3, ((1R,3s,5S)-3-(7-amino-6-(methylsulfonyl)-3-(6-phenylpyridin-3-yl)pyrazolo[1,5-a]pyrimidin-5-yl)-8-azabicyclo[3.2.1]octan-8-yl)(1H-1,2,3,-triazol-5-yl)methanone]",,,7.00 to 9.00,6.00 to 7.00,
"CS(=O)(=O)c1c([C@@H]2C[C@H]3CC[C@@H](C2)N3C(=O)CO)nc2c(-c3cnc(-c4ccccc4)c(O)c3)cnn2c1N [Compound 3.23, 1-((1R,3s,5S)-3-(7-amino-3-(5-hydroxy-6-phenylpyridin-3-yl)-6-(methylsulfonyl)pyrazolo[1,5-a]pyrimidin-5-yl)-8-azabicyclo[3.2.1]octan-8-yl)-2-hydroxyethanone]",,,5.00 to 6.00,5.00 to 6.00,
"CC(=O)c1c(N2C3CCC2CN(C(=O)c2nnc[nH]2)C3)nc2c(-c3ccc(-c4ccccc4)nc3)cnn2c1N [Compound 8.5, 1-(5-(3-(4H-1,2,4-triazole-3-carbonyl)-3,8-diazabicyclo[3.2.1]octan-8-yl)-7-amino-3-(6-phenylpyridin-3-yl)pyrazolo[1,5-a]pyrimidin-6-yl)ethanone]",,,,,"pIC50 ([1]; PC-3, PC3 cells): 6.00 to 7.00; pIC50 ([2]; PC-3, PC3 cells): 5.00 to 6.00"
"CC(=O)c1c([C@@H]2C[C@H]3CC[C@@H](C2)N3C(=O)CO)nc2c(-c3ccc(-n4cccn4)nc3)cnn2c1N [Compound 1.1.178, 1-((1R,3s,5S)-3-(3-(6-(1H-pyrazol-1-yl)pyridin-3-yl)-6-acetyl-7-aminopyrazolo[1,5-a]pyrimidin-5-yl)-8-azabicyclo[3.2.1]octan-8-yl)-2-hydroxyethanone]",7.00 to 9.00,6.00 to 7.00,,,
"CNC(=O)c1ccc(-c2cnn3c(N)c(C(C)=O)c([C@@H]4C[C@H]5CC[C@@H](C4)N5C(=O)c4nc[nH]n4)nc23)cn1 [Compound 1.1.28, 5-(5-((1R,3s,5S)-8-(1H-1,2,4-triazole-3-carbonyl)-8-azabicyclo[3.2.1]octan-3-yl)-6-acetyl-7-aminopyrazolo[1,5-a]pyrimidin-3-yl)-N-methylpicolinamide]",5.00 to 6.00,5.00 to 6.00,,,
"CC(=O)c1c([C@@H]2C[C@H]3CC[C@@H](C2)N3C(=O)c2ccn[nH]2)nc2c(-c3ccc(-n4cc(C)cn4)nc3)cnn2c1N [Compound 1.1.131, 1-(5-((1R,3s,5S)-8-(1H-pyrazole-5-carbonyl)-8-azabicyclo[3.2.1]octan-3-yl)-7-amino-3-(6-(4-methyl-1H-pyrazol-1-yl)pyridin-3-yl)pyrazolo[1,5-a]pyrimidin-6-yl)ethanone]",6.00 to 7.00,6.00 to 7.00,,,
"CS(=O)(=O)c1c([C@@H]2C[C@H]3CC[C@@H](C2)N3C(=O)CO)nc2c(-c3cnn(-c4ccccn4)c3)cnn2c1N [Compound 3.124, 1-((1R,3s,5S)-3-(7-amino-6-(methylsulfonyl)-3-(1-(pyridin-2-yl)-1H-pyrazol-4-yl)pyrazolo[1,5-a]pyrimidin-5-yl)-8-azabicyclo[3.2.1]octan-8-yl)-2-hydroxyethanone]",,,6.00 to 7.00,5.00 to 6.00,
"Cn1ccc(-c2ccc(-c3cnn4c(N)c(C5CC5)c([C@@H]5C[C@H]6CC[C@@H](C5)N6C(=O)c5nnc[nH]5)nc34)cn2)n1 [Compound 4.17, ((1R,3s,5S)-3-(7-amino-6-cyclopropyl-3-(6-(1-methyl-1H-pyrazol-3-yl)pyridin-3-yl)pyrazolo[1,5-a]pyrimidin-5-yl)-8-azabicyclo[3.2.1]octan-8-yl)(4H-1,2,4-triazol-3-yl)methanone]",7.00 to 9.00,7.00 to 9.00,,,
"CS(=O)(=O)c1c([C@@H]2C[C@H]3CC[C@@H](C2)N3C(=O)c2nnc[nH]2)nc2c(-c3cnn(-c4ccccc4)c3)cnn2c1N [Compound 3.97, ((1R,3s,5S)-3-(7-amino-6-(methylsulfonyl)-3-(1-phenyl-1H-pyrazol-4-yl)pyrazolo[1,5-a]pyrimidin-5-yl)-8-azabicyclo[3.2.1]octan-8-yl)(4H-1,2,4-triazol-3-yl)methanone]",,,7.00 to 9.00,7.00 to 9.00,
"CS(=O)(=O)c1c([C@@H]2C[C@H]3CC[C@@H](C2)N3C(=O)CO)nc2c(-c3ccc(C4(O)COC4)nc3)cnn2c1N [Compound 7.49, 1-((1R,3s,5S)-3-(7-amino-3-(6-(3-hydroxyoxetan-3-yl)pyridin-3-yl)-6-(methylsulfonyl)pyrazolo [1,5-a]pyrimidin-5-yl)-8-azabicyclo[3.2.1]octan-8-yl)-2-hydroxyethanone]",,,,,"pIC50 ([1]; PC-3, Table 7-8, PC3 cells): 5.00 to 6.00; pIC50 ([2]; PC-3, Table 7-8, PC3 cells): 5.00 to 6.00"
"CC(=O)c1c([C@@H]2C[C@H]3CC[C@@H](C2)N3C(=O)CO)nc2c(-c3ccc(-c4nn(C)cc4F)nc3)cnn2c1N [Compound 1.1.94, 1-((1R,3s,5S)-3-(6-acetyl-7-amino-3-(6-(4-fluoro-1-methyl-1H-pyrazol-3-yl)pyridin-3-yl)pyrazolo[1,5-a]pyrimidin-5-yl)-8-azabicyclo[3.2.1]octan-8-yl)-2-hydroxyethanone]",6.00 to 7.00,6.00 to 7.00,,,
"CC(=O)c1c([C@@H]2C[C@H]3CC[C@@H](C2)N3C(=O)c2nnc(C)[nH]2)nc2c(-c3ccc(C(C)(C)O)nc3)cnn2c1N [Compound 7.9, 1-(7-amino-3-(6-(2-hydroxypropan-2-yl)pyridin-3-yl)-5-((1R,3s,5S)-8-(5-methyl-4H-1,2,4-triazole-3-carbonyl)-8-azabicyclo[3.2.1]octan-3-yl)pyrazolo[1,5-a]pyrimidin-6-yl)ethanone]",6.00 to 7.00,6.00 to 7.00,,,
"Cc1nnc(C(=O)N2[C@@H]3CC[C@H]2C[C@H](c2nc4c(-c5ccc(C6(O)CCC6)nc5)cnn4c(N)c2C2CC2)C3)[nH]1 [Compound 7.71, ((1R,3s,5S)-3-(7-amino-6-cyclopropyl-3-(6-(1-hydroxycyclobutyl)pyridin-3-yl)pyrazolo[1,5-a]pyrimidin-5-yl)-8-azabicyclo[3.2.1]octan-8-yl)(5-methyl-4H-1,2,4-triazol-3-yl)methanone]",,,,,"pIC50 ([1]; PC-3, PC3 cells): 6.00 to 7.00; pIC50 ([2]; PC-3, PC3 cells): 6.00 to 7.00"
"CC(=O)c1c([C@@H]2C[C@H]3CC[C@@H](C2)N3C(=O)CO)nc2c(-c3ccc(-c4cc(F)cc(F)c4)nc3)cnn2c1N [Compound 1.1.101, 1-((1R,3r,5S)-3-(6-acetyl-7-amino-3-(6-(3,5-difluorophenyl)pyridin-3-yl)pyrazolo[1,5-a]pyrimidin-5-yl)-8-azabicyclo[3.2.1]octan-8-yl)-2-hydroxyethanone]",6.00 to 7.00,6.00 to 7.00,,,
"CS(=O)(=O)c1c([C@@H]2C[C@H]3CC[C@@H](C2)N3C(=O)c2cc(CN)n[nH]2)nc2c(-c3ccc(-c4ccccc4)nc3)cnn2c1N [Compound 3.85, ((1R,3s,5S)-3-(7-amino-6-(methylsulfonyl)-3-(6-phenylpyridin-3-yl)pyrazolo[1,5-a]pyrimidin-5-yl)-8-azabicyclo[3.2.1]octan-8-yl)(3-(aminomethyl)-1H-pyrazol-5-yl)methanone]",,,7.00 to 9.00,7.00 to 9.00,
"CS(=O)(=O)c1c([C@H]2CC3CC[C@H](C2)N3C(=O)c2cnn[nH]2)nc2c(-c3ccc(-c4c(F)cccc4F)nc3)cnn2c1N [Compound 3.173, ((1R,3s,5S)-3-(7-amino-3-(6-(2,6-difluorophenyl)pyridin-3-yl)-6-(methylsulfonyl)pyrazolo[1,5-a]pyrimidin-5-yl)-8-azabicyclo[3.2.1]octan-8-yl)(1H-1,2,3-triazol-5-yl)methanone]",,,6.00 to 7.00,6.00 to 7.00,
"CS(=O)(=O)c1c([C@@H]2C[C@H]3CC[C@@H](C2)N3C(=O)C2(O)CC2)nc2c(-c3ccc(-c4ccccc4)nc3)cnn2c1N [Compound 3.12, ((1R,3s,5S)-3-(7-amino-6-(methylsulfonyl)-3-(6-phenylpyridin-3-yl)pyrazolo[1,5-a]pyrimidin-5-yl)-8-azabicyclo[3.2.1]octan-8-yl)(1-hydroxycyclopropyl)methanone]",,,6.00 to 7.00,5.00 to 6.00,
